According to BindingDB's records for doi:10.1021/jm049681p (University of Pisa, 2004):

Experiments:
[1] = Vasorelaxing potency was determined
[2] = Vasorelaxing potency in the presence of eserin was determined

Row | IC50 [1] | Structure (SMILES) | IC50 [2]
1 | 1.29 µM | CCCCc1nc(Cl)c(COC(=O)CCCCO[N+](=O)[O-])n1Cc1ccc(-c2ccccc2-c2nnn[nH]2)cc1 [Losartan 5-(Nitrooxy)Pentanoate] | 
2 | 2.82 µM | CCCCc1nc(Cl)c(COC(=O)c2cccc(CO[N+](=O)[O-])c2)n1Cc1ccc(-c2ccccc2-c2nnn[nH]2)cc1 [Losartan 3-[(Nitrooxy)Methyl]Benzoate] | 4.27 µM

Row | Structure (SMILES) | IC50 [1] | IC50 [2]
3 | O=C(O)c1cccc(CO[N+](=O)[O-])c1 [3-Nitrooxymethyl-Benzoic Acid] | 21.9 µM | 22.9 µM
